pKi: −log10 of the molar value.
The compounds below were run against T1, Autotaxin (Homo sapiens, UniProt Q13822) (assay: Inhibition of autotoxin assessed as choline production after 60 to 180 mins using lysophosphatidylcholine as a substrate by colorimetric method).
For `CCCCCCCCCCCCCCCC(=O)N[C@@H](Cc1ccc(OCc2ccccn2)cc1)[C@@H](O)CP(=O)(O)O`, the pKi was 5.36. Work on `CCCCCCCCCCCCCCCC(=O)N[C@@H](Cc1ccc(OCc2ccc(C)cc2C)cc1)[C@H](O)CP(=O)(O)O` yielded a pKi of 5.32. For `CCCCCCCCCCCCCCCC(=O)N[C@@H](Cc1ccc(OCc2ccc(OC)c(C)c2)cc1)[C@@H](O)CP(=O)(O)O`, the pKi was 5.37. With `CCCCCCCCCCCCCCCC(=O)N[C@@H](Cc1ccc(OCc2ccccn2)cc1)[C@H](O)CP(=O)(O)O` the pKi was 4.96. `CCCCCCCCCCCCCCCC(=O)N[C@@H](Cc1ccc(OCc2ncc(C)c(OCC)c2C)cc1)[C@H](O)CP(=O)(O)O` showed a pKi of 5.21. `CCCCCCCCCCCCCCCC(=O)N[C@@H](Cc1ccc(OCc2cc(C)cc(C)c2)cc1)[C@H](O)CP(=O)(O)O` showed a pKi of 3.66. Work on `CCCCCCCCCCCCCCCC(=O)N[C@@H](Cc1ccc(OCc2ccc(Cl)cc2Cl)cc1)[C@H](O)CP(=O)(O)O` yielded a pKi of 2.98. `CCCCCCCCCCCCCCCC(=O)N[C@@H](Cc1ccc(OCc2ccccc2)cc1)[C@@H](O)CP(=O)(O)O` gave a pKi of 4.57. In the case of `CCCCCCCCCCCCCCCC(=O)N[C@@H](Cc1ccc(OCc2ccc(OC)c(C)c2)cc1)[C@H](O)CP(=O)(O)O`, the pKi was 4.58. `CCCCCCCCCCCCCCCC(=O)N[C@@H](Cc1ccc(OCc2ncc(C)c(OCC)c2C)cc1)[C@@H](O)CP(=O)(O)O` gave a pKi of 5.33. With `CCCCCCCCCCCCCCCC(=O)N[C@@H](Cc1ccc(OCc2ccc(C)cc2C)cc1)[C@@H](O)CP(=O)(O)O` the pKi was 5.74. With `CCCCCCCCCCCCCCCC(=O)N[C@@H](Cc1ccc(OCc2cc(C)cc(C)c2)cc1)[C@@H](O)CP(=O)(O)O` the pKi was 4.05. Work on `CCCCCCCCCCCCCCCC(=O)N[C@@H](Cc1ccc(OCc2ccccc2)cc1)[C@H](O)CP(=O)(O)O` yielded a pKi of 4.08. In the case of `CCCCCCCCCCCCCCCC(=O)N[C@@H](Cc1ccc(OCc2ncc(C)c(OC)c2C)cc1)[C@H](O)CP(=O)(O)O`, the pKi was 5.41. In the case of `CCCCCCCCCCCCCCCC(=O)N[C@@H](Cc1ccc(OCc2ncc(C)cc2C)cc1)[C@@H](O)CP(=O)(O)O`, the pKi was 5.41. `CCCCCCCCCCCCCCCC(=O)N[C@@H](Cc1ccc(OCc2cc(OC)ccn2)cc1)[C@@H](O)CP(=O)(O)O` gave a pKi of 5.82. `CCCCCCCCCCCCCCCC(=O)N[C@@H](Cc1ccc(OCc2cc(OCC(F)(F)F)ccn2)cc1)[C@@H](O)CP(=O)(O)O` showed a pKi of 4.94. `CCCCCCCCCCCCCCCC(=O)N[C@@H](Cc1ccc(OCc2ncc(C)c(OC(C)C)c2C)cc1)[C@H](O)CP(=O)(O)O` gave a pKi of 4.95. `CCCCCCCCCCCCCCCC(=O)N[C@@H](Cc1ccc(OCc2ccc(Cl)cc2Cl)cc1)[C@@H](O)CP(=O)(O)O` was tested, and the pKi was 3.23. Compound `CCCCCCCCCCCCCCCC(=O)N[C@@H](Cc1ccc(OCc2ncc(C)c(OC(C)C)c2C)cc1)[C@@H](O)CP(=O)(O)O` has a pKi of 5.06. In the case of `CCCCCCCCCCCCCCCC(=O)N[C@@H](Cc1ccc(OCc2ncc(C)cc2C)cc1)[C@H](O)CP(=O)(O)O`, the pKi was 3.40. `CCCCCCCCCCCCCCCC(=O)N[C@@H](Cc1ccc(OCc2cc(C)c(OC)c(C)c2)cc1)[C@@H](O)CP(=O)(O)O` was tested, and the pKi was 5.80. `CCCCCCCCCCCCCCCC(=O)N[C@@H](Cc1ccc(OCc2cc(OC)ccn2)cc1)[C@H](O)CP(=O)(O)O` showed a pKi of 5.46. `CCCCCCCCCCCCCCCC(=O)N[C@@H](Cc1ccc(OCc2cc(OCC(F)(F)F)ccn2)cc1)[C@H](O)CP(=O)(O)O` showed a pKi of 4.65. Compound `CCCCCCCCCCCCCCCC(=O)N[C@@H](Cc1ccc(OCc2cc(C)c(OC)c(C)c2)cc1)[C@H](O)CP(=O)(O)O` has a pKi of 5.28. For `CCCCCCCCCCCCCCCC(=O)N[C@@H](Cc1ccc(OCc2ncc(C)c(OC)c2C)cc1)[C@@H](O)CP(=O)(O)O`, the pKi was 6.00.

These compounds were tested against T1, Autotaxin (assay: Inhibition of autotoxin assessed as choline release from LPC using lysophosphatidylcholine as substrate).
In the case of `CCCCCCCCCCCCCCCCCC(=O)OC[C@@H](O)CC(Br)P(=O)(O)O` (stereo not given in full), the pKi was 4.40. In the case of `O=C1S/C(=C\c2cccc(B(O)O)c2)C(=O)N1Cc1ccc(F)cc1`, the pKi was 7.03. `O=C(O)c1cccc(/C=C2\SC(=O)N(Cc3ccc(F)cc3)C2=O)c1` was tested, and the pKi was 6.73. For `CCCCCCCCCCCCCC(=O)Nc1ccc(CP(=O)(O)O)cc1`, the pKi was 6.44.
